The results in this text go back to patent US20160339057A1, “NOVEL COMPOSITION METHOD OF USING THE SAME FOR THE TREATMENT OF LYME DISEASE” (priority 2014, published 2016).

Assay [1] relates to spirochetes of B. burgdorferi. Briefly: Susceptibility of spirochetes, dark-field microscopy. It counts as cell-based, Borrelia burgdorferi B31. The settings on record: most effective concentration (doxycycline: commonly tested concentration, 250 μg/ml), up to 7 days. The method, then:
(§1) To determine what compound/mixture will inhibit visible growth of B. burgdorferi and B. garinii, a new and accepted micro-dilution method was used according to Sapi et al. Infection and Drug Resistance 2011. Briefly, sterile 1.5 ml test tightly caps screwed tubes containing 1 ml BSK-H medium, supplemented with the test compound of interest were inoculated with 2×10^6 CFU/ml of the homogenous bacterial suspension. The tubes were then incubated at 33° C. and growth was monitored at regular intervals for up to 72 h. The whole experiment was repeated three times for each strain and each concentration. Control cultures were treated with ethanol (i.e. 0.1-0.4 vol/vol) alone. For doxycycline, the final used concentration was 250 μg/m1. Cell growth was assessed by a bacterial Petroff-Hausser counting chamber after the 0 hour, 24 hrs, 48 hrs, 72 hrs and 7 days of incubation using dark field microscopy (direct cell counting), as a standard procedure.

In assay [2] the test system is rounded forms of B. garinii. Briefly: Susceptibility of rounded forms, SYTO 9 / propidium iodide fluorescent microscopy. It counts as cell-based, Borrelia garinii CIP103362. As to conditions: most effective concentration, up to 7 days. The method, then: (§2) To determine what compound/mixture will have the bactericidal effect a fluorescence method was used according to Sapi et al. Infection and Drug Resistance 2011. Briefly, 2×10^6 CFU/ml of the homogenous bacterial suspension was inoculated into each sterile 1.5 ml test tightly caps screwed tubes containing 1 ml BSK-H medium, supplemented with the test compound/mixture of interest. Control cultures were treated with ethanol (i.e. 0.1-0.4 vol/vol) alone. For doxycycline, as a positive control, the final used concentration was 250 μg/m1. The tubes were then incubated at 33° C. and viability was monitored at regular intervals for up to 72 h. The whole experiment was repeated three times for each strain and each concentration. The susceptibility of spirochetes and round body forms to the test compound was then assessed after 24 h, 48 h, 72 h and 7 days by LIVE/DEAD® BacLight™ Bacterial Viability Assay using fluorescent microscopy, were the ratio of live (green) and dead (red) B. burgdorferi and B. garinii morphological forms were calculated.

The subject of assay [3] is rounded forms of B. burgdorferi. The assay is described as above. It counts as cell-based, Borrelia burgdorferi B31. As to conditions: most effective concentration, up to 7 days. The method, then: as §2
Another assay concerns biofilm of B. garinii. Briefly: Biofilm on extracellular matrix proteins, crystal violet staining. The assay is classed as cell-based, Borrelia garinii CIP103362. The settings on record: 5 extracellular matrix proteins, most effective concentration. The protocol: (§3) Qualitative effect of the test compounds against biofilm-like colonies of B. burgdorferi and B. garinii was evaluated using commonly used and well accepted crystal violet (CV) staining method, according to protocol provided by Sapi et al. Infection and Drug Resistance 2011. Briefly, for curable effect, 1×10^7 CFU/ml from homogeneous cultures of spirochetes were inoculated in extracellular matrix proteins (i.e. matrigel, collagen type I, fibrinogen, hyaluronan, and chondroitin sulfate) coated four-well chambers and incubated for 1 week, respectively. After the 1 week of incubation, biofilm-like colonies were treated with various compounds/mixtures. For preventive effect, 1×10^7 CFU/ml from homogeneous cultures of spirochetes complemented with various compounds/mixtures were inoculated in extracellular matrix proteins (i.e. matrigel, collagen type I, fibrinogen, hyaluronan, and chondroitin sulfate) coated four-well chambers and incubated for 1 week, respectively. Control wells were treated with ethanol (i.e. 0.1-0.4 vol/vol) alone. For doxycycline, as a positive control, the final used concentration was […]. The chambers were then incubated at 33° C. for 72 h. […] The biofilm-like colonies were carefully washed three times with 1×PBS and 1 ml of methanol was added to each well to extract a dye, which was measured at 595 nm wavelength.

Assay [4] relates to spirochetes of B. garinii. Nature of the assay: Susceptibility of spirochetes, dark-field microscopy. The settings on record: most effective concentration (doxycycline: commonly tested concentration, 250 μg/ml), up to 7 days. It counts as cell-based, Borrelia garinii CIP103362. The protocol: as §1
Assay [5] relates to biofilm of B. burgdorferi. Briefly: Biofilm on extracellular matrix proteins, crystal violet staining. It counts as cell-based, Borrelia burgdorferi B31. The settings on record: 5 extracellular matrix proteins, most effective concentration. The protocol: as §3

Take `C[C@H]1c2cccc(O)c2C(=O)C2=C(O)[C@]3(O)C(=O)C(C(N)=O)=C(O)[C@@H](N(C)C)[C@@H]3[C@@H](O)[C@@H]21` [doxycycline]: the “decrease of amount of spiral forms” value in assay [1] and in assay [4] was 60-75% in each case. The “increase of dead of rounded forms” value in assay [2] and in assay [3] was 5-10% each time. Further, the “rounded forms formation generated” value in assay [2] and in assay [3] was “about 2 times” throughout. Also, the “biofilm eradicated (curable effect)” value (in the assay with biofilm of B. garinii (3 days post-treatment); in assay [5] (3 days post-treatment)) was 5-40% in each case. Moreover, the “biofilm formation prevented (preventive effect)” value (with biofilm of B. garinii (after 7 days); in assay [5] (after 7 days)) was 40-60% in each case.
